Assay results from BindingDB's records for doi:10.1007/bf00965909 (Biological Research Center of Hungarian Academy of Sciences, 1990).
Values joined by “and” are separate entries in the source; they are usually repeats but may differ in a detail not shown here. Equal values may be shown once.

How the values were obtained:
[1] = molecular target: kappa-type opioid receptor isoform 1 (Xenopus tropicalis, UniProt F7A0F2)
[2] = molecular target: Kappa-type opioid receptor (Rattus norvegicus, UniProt P34975)
Chain of Kappa-type opioid receptor (P34975 whole entry): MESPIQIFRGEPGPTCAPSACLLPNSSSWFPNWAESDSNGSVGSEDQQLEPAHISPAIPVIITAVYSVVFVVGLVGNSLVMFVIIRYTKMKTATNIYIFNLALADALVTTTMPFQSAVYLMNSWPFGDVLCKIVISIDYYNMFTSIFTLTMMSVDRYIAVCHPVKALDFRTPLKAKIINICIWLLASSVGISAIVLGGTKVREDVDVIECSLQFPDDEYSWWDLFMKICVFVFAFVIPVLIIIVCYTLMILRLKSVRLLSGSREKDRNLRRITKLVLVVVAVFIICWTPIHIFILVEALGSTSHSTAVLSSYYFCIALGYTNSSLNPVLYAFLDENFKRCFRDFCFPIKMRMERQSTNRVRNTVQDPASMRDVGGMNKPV

Chain of kappa-type opioid receptor isoform 1 (F7A0F2 whole entry, canonical isoform): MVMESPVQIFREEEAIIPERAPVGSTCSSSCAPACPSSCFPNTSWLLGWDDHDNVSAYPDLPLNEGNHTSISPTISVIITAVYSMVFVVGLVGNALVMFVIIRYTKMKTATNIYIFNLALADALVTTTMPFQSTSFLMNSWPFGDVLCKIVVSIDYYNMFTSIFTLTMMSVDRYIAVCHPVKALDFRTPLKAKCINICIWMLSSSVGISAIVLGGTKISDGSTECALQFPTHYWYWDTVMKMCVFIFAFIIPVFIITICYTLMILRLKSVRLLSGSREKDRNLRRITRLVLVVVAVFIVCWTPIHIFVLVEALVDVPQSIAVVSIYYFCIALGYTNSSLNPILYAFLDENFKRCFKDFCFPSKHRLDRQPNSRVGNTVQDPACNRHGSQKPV

| Molecule | Ki [1] | Ki [2] |
| --- | --- | --- |
| [N-]=[N+]=N[C@@H]1CC[C@H]2[C@H]3Cc4ccc(O)c5c4[C@@]2(CCN3CC2CC2)[C@@H]1O5 [N-cyclopropylmethylnorazidomorphine] | 0.1 nM | 0.1 nM and 0.2 nM and 0.3 nM |
| H-YGGFMTSEKSQTPLVTLFKNAIVKNAHKKGQ-OH [Beta-Endorphin] | – | 2.3 nM |
| CC1[C@H]2Cc3ccc(O)cc3[C@]1(C)CCN2C[C@H]1CCCO1 (stereo partly drawn) [CAS_57236-85-8] | 4.8 nM | – |
| CC1[C@H]2Cc3ccc(O)cc3[C@]1(C)CCN2C[C@@H]1CCCO1 (stereo partly drawn) [(+)-alpha-(1R,5R,9R)-5,9-Dimethyl-2-L-tetrahydrofurfuryl)-2'-hydroxy-6,7-benzomorphan] | 5400 nM | – |
| CC[C@H](C)[C@H](NC(=O)[C@H](CCCNC(=N)N)NC(=O)[C@H](CCCNC(=N)N)NC(=O)[C@H](CC(C)C)NC(=O)[C@H](Cc1ccccc1)NC(=O)CNC(=O)CNC(=O)[C@@H](N)Cc1ccc(O)cc1)C(=O)N[C@@H](CCCNC(=N)N)C(=O)N1CCC[C@H]1C(=O)N[C@@H](CCCCN)C(=O)N[C@@H](CC(C)C)C(=O)N[C@@H](CCCCN)C(=O)O [Dynorphin A (1-13)] | 12 nM and 3.1 nM | 57 nM |
| C[C@@H](NC(=O)[C@@H](N)Cc1ccc(O)cc1)C(=O)NCC(=O)N(C)[C@@H](Cc1ccccc1)C(=O)NCCO [[tyrosyl-3,5-3H(N)]-D-Ala2-Mephe4-glyol5-enkephalin] | 59 nM and 360 nM and 470 nM | – |
